Data reported in patent US4308168A, “Vapor phase corrosion inhibitor compositions and method of inhibiting corrosion using said compositions” (priority 1978, dated 1981).

Experiments:
[1] = Rust formation on polished carbon steel at a distance of 25 cm in closed vessel (vapor phase, condensed water); parameters: key: The amount of the rust is less than that in the blank test.; x: The amount of the rust is the same as that in the blank test; details: 20 mg sample, 5-liter vessel, 20°±2° C., observed 5 hours after water condensation
Procedure: A laboratory dish containing 20 milligrams of each sample obtained in the preceding Examples was added to a 5-liter glass vessel containing 50 milliliters of 30% aqueous solution of glycerin.
A piece of polished carbon steel (JIS G-4051) was arranged at the upper part of the vessel, at a distance of 25 centimeters from the dish. After keeping the vessel at 20°±2° C. during 1-5 days, water droplets were condensed on a surface of steel from moisture by pouring cold water into an aluminum pipe, and after 5 hours the presence of the rust on the steel piece was observed.

[2] = Solubility in water
[3] = Oral acute toxicity, LD50 in rats; details: rat, in vivo, rats weighing 90 grams, fasted 24 hours, one week
Procedure: Specifics of the chemicals listed in Table 2 were administered orally in various concentration to respective groups of 10 rats weighing 90 grams after fasting for 24 hours.
After oral administration of the chemical, the rats were fed with a sufficient amount of a diet and water and kept in a thermo-hygrostat at a temperature of 25° C. and humidity of 60% during one week to determine the LD50.

[4] = prior-art inhibitors; mineral oil; cited from earlier work
[5] = ambient temperatures; cited from earlier work

SMILES | presence of rust on steel piece, after leaving for 1 day [1] | presence of rust on steel piece, after leaving for 5 days [1] | solubility in water [2] | LD50 at 168 h [3] [mg/kg] | solubility in oil [4] | distance of diffusion of gas [5]
CC(N)C(=O)OC(C)(C)C (stereo not drawn) [α-alanine-tert-butyl ester, α-alanine-tert-butylester] | o | o | wholly soluble in water | – | – | –
CC(C)(C)OC(=O)CN | o | o | – | – | – | –
C1CCC(NC2CCCCC2)CC1.O=[N+]([O-])O [DICHAN, dicyclohexylamine nitrate, reference compound] | x | x | – | 200 | no solubility in oil | about 30 cm.
CC(C)(C)OC(=O)CCN [β-alanine-tert-butyl ester, β-alanine-tert-butylester] | o | o | wholly soluble in water | – | – | –
CNCC(=O)OC(C)(C)C [N-methylglycine-tert-butyl ester, N-methylglycine-tert-butylester] | o | o | – | – | – | –
C1CCC(NC2CCCCC2)CC1 [dicyclohexylamine, reference compound] | – | – | – | 500 | – | –
CC(C)(C)OC(=O)[C@@H](N)Cc1ccccc1 [phenylalanine-tert-butyl ester, phenylalanine-tert-butylester] | o | o | – | – | – | –
C1CCC(NC2CCCCC2)CC1 [FERROGUARD] | – | – | – | – | only slightly soluble in mineral oil | –
CC(C)(C)OC(=O)[C@@H]1CCCN1 [proline-tert-butyl ester, proline-tert-butylester] | o | o | – | > 5000 | – | –
CCOC(=O)C(C)N (stereo not drawn) [α-alanine ethyl ester] | o | o | – | > 5000 | – | –
